Earlier results as cited in patent publication US20240292871A1, “A SWEETENER OR SWEETNESS ENHANCER COMPOSITION” (ANALYTICON DISCOVERY GMBH, priority 2020, published 2024).

Conditions: 5% sucrose in water

COc1ccc([C@@H]2CC(=O)c3c(O)cc(O)cc3O2)cc1O [hesperetin]
enhances the sweetness of sucrose: 41%
